Where “and” joins values, the source holds several entries; their conditions need not be identical. Equal entries are not always repeated. ± gives the uncertainty stated by the source.
Test: xn = mol fraction of the nth substance listed

## c1ccc2ccccc2c1 + Cc1ccccc1
293.15 K, 101.3 kPa, x1 = 0.00773
  viscosity: 0.6067 ± 0.016 mPa·s
293.15 K, 101.3 kPa, x1 = 0.01364
  viscosity: 0.606 ± 0.016 mPa·s
293.15 K, 101.3 kPa, x1 = 0.02032
  viscosity: 0.6117 ± 0.016 mPa·s
293.15 K, 101.3 kPa, x1 = 0.02587
  viscosity: 0.616 ± 0.016 mPa·s
293.15 K, 101.3 kPa, x1 = 0.03281
  viscosity: 0.6241 ± 0.016 mPa·s
293.15 K, 101.3 kPa, x1 = 0.03882
  viscosity: 0.6277 ± 0.016 mPa·s
293.15 K, 101.3 kPa, x1 = 0.04399
  viscosity: 0.6308 ± 0.016 mPa·s
298.15 K, 101 kPa, x1 = 0.0419
  viscosity: 0.5848 ± 0.015 mPa·s
298.15 K, 101 kPa, x1 = 0.1026
  viscosity: 0.6394 ± 0.017 mPa·s
298.15 K, 101 kPa, x1 = 0.1533
  viscosity: 0.6866 ± 0.018 mPa·s
298.15 K, 101 kPa, x1 = 0.2127
  viscosity: 0.747 ± 0.02 mPa·s
298.15 K, 101.3 kPa, x1 = 0.00773
  viscosity: 0.5676 ± 0.015 mPa·s
298.15 K, 101.3 kPa, x1 = 0.01364
  viscosity: 0.5709 ± 0.015 mPa·s
298.15 K, 101.3 kPa, x1 = 0.02032
  viscosity: 0.5768 ± 0.015 mPa·s
298.15 K, 101.3 kPa, x1 = 0.02587
  viscosity: 0.581 ± 0.015 mPa·s
298.15 K, 101.3 kPa, x1 = 0.03281
  viscosity: 0.5863 ± 0.015 mPa·s
298.15 K, 101.3 kPa, x1 = 0.03882
  viscosity: 0.591 ± 0.015 mPa·s
298.15 K, 101.3 kPa, x1 = 0.04399
  viscosity: 0.5948 ± 0.015 mPa·s
303.15 K, 101 kPa, x1 = 0.3218
  viscosity: 0.7855 ± 0.02 mPa·s
308.15 K, 101 kPa, x1 = 0.3218
  viscosity: 0.747 ± 0.019 mPa·s
308.15 K, 101 kPa, x1 = 0.3709
  viscosity: 0.8101 ± 0.02 mPa·s
313.15 K, 101 kPa, x1 = 0.3218
  viscosity: 0.7058 ± 0.018 mPa·s
313.15 K, 101 kPa, x1 = 0.3709
  viscosity: 0.7571 ± 0.019 mPa·s
313.15 K, 101.3 kPa, x1 = 0.00773
  viscosity: 0.4785 ± 0.013 mPa·s
313.15 K, 101.3 kPa, x1 = 0.01364
  viscosity: 0.4809 ± 0.013 mPa·s
313.15 K, 101.3 kPa, x1 = 0.02032
  viscosity: 0.4846 ± 0.013 mPa·s
313.15 K, 101.3 kPa, x1 = 0.02587
  viscosity: 0.4888 ± 0.013 mPa·s
313.15 K, 101.3 kPa, x1 = 0.03281
  viscosity: 0.4919 ± 0.013 mPa·s
313.15 K, 101.3 kPa, x1 = 0.03882
  viscosity: 0.4951 ± 0.013 mPa·s
313.15 K, 101.3 kPa, x1 = 0.04399
  viscosity: 0.4995 ± 0.013 mPa·s
318.15 K, 101 kPa, x1 = 0.3218
  viscosity: 0.661 ± 0.017 mPa·s
318.15 K, 101 kPa, x1 = 0.3709
  viscosity: 0.7105 ± 0.018 mPa·s
323.15 K, 101 kPa, x1 = 0.3218
  viscosity: 0.627 ± 0.016 mPa·s
323.15 K, 101 kPa, x1 = 0.3709
  viscosity: 0.672 ± 0.017 mPa·s
323.15 K, 101.3 kPa, x1 = 0.00773
  viscosity: 0.4281 ± 0.011 mPa·s
323.15 K, 101.3 kPa, x1 = 0.01364
  viscosity: 0.4311 ± 0.011 mPa·s
323.15 K, 101.3 kPa, x1 = 0.02032
  viscosity: 0.4342 ± 0.011 mPa·s
323.15 K, 101.3 kPa, x1 = 0.02587
  viscosity: 0.4374 ± 0.011 mPa·s
323.15 K, 101.3 kPa, x1 = 0.03882
  viscosity: 0.4433 ± 0.011 mPa·s
323.15 K, 101.3 kPa, x1 = 0.04136
  viscosity: 0.4401 ± 0.011 mPa·s
323.15 K, 101.3 kPa, x1 = 0.04399
  viscosity: 0.4469 ± 0.011 mPa·s

## COc1ccccc1 + c1ccccc1
293.15 K, 101.33 kPa, x1 = 0.0945
  viscosity: 0.7297 ± 0.038 mPa·s
293.15 K, 101.33 kPa, x1 = 0.1951
  viscosity: 0.7551 ± 0.04 mPa·s
293.15 K, 101.33 kPa, x1 = 0.2984
  viscosity: 0.8001 ± 0.042 mPa·s
293.15 K, 101.33 kPa, x1 = 0.3942
  viscosity: 0.8413 ± 0.044 mPa·s
293.15 K, 101.33 kPa, x1 = 0.5178
  viscosity: 0.9017 ± 0.047 mPa·s
293.15 K, 101.33 kPa, x1 = 0.6157
  viscosity: 0.9434 ± 0.049 mPa·s
293.15 K, 101.33 kPa, x1 = 0.6574
  viscosity: 0.9641 ± 0.051 mPa·s
293.15 K, 101.33 kPa, x1 = 0.8116
  viscosity: 1.052 ± 0.055 mPa·s
293.15 K, 101.33 kPa, x1 = 0.906
  viscosity: 1.097 ± 0.058 mPa·s
298.15 K, 101.33 kPa, x1 = 0.0945
  viscosity: 0.6765 ± 0.036 mPa·s
298.15 K, 101.33 kPa, x1 = 0.1
  viscosity: 0.635 ± 0.017 mPa·s
298.15 K, 101.33 kPa, x1 = 0.1025
  viscosity: 0.6396 ± 0.017 mPa·s
298.15 K, 101.33 kPa, x1 = 0.1951
  viscosity: 0.7095 ± 0.037 mPa·s
298.15 K, 101.33 kPa, x1 = 0.2
  viscosity: 0.671 ± 0.013 mPa·s and 0.671 ± 0.018 mPa·s
298.15 K, 101.33 kPa, x1 = 0.2004
  viscosity: 0.6806 ± 0.018 mPa·s
298.15 K, 101.33 kPa, x1 = 0.2984
  viscosity: 0.7437 ± 0.039 mPa·s
298.15 K, 101.33 kPa, x1 = 0.3003
  viscosity: 0.7121 ± 0.019 mPa·s
298.15 K, 101.33 kPa, x1 = 0.3942
  viscosity: 0.7772 ± 0.041 mPa·s
298.15 K, 101.33 kPa, x1 = 0.4
  viscosity: 0.742 ± 0.02 mPa·s
298.15 K, 101.33 kPa, x1 = 0.402
  viscosity: 0.7553 ± 0.02 mPa·s
298.15 K, 101.33 kPa, x1 = 0.4985
  viscosity: 0.7849 ± 0.021 mPa·s
298.15 K, 101.33 kPa, x1 = 0.5
  viscosity: 0.782 ± 0.016 mPa·s and 0.782 ± 0.021 mPa·s
298.15 K, 101.33 kPa, x1 = 0.5178
  viscosity: 0.8397 ± 0.044 mPa·s
298.15 K, 101.33 kPa, x1 = 0.6
  viscosity: 0.821 ± 0.022 mPa·s
298.15 K, 101.33 kPa, x1 = 0.6157
  viscosity: 0.88 ± 0.046 mPa·s
298.15 K, 101.33 kPa, x1 = 0.6574
  viscosity: 0.9047 ± 0.048 mPa·s
298.15 K, 101.33 kPa, x1 = 0.699
  viscosity: 0.8709 ± 0.023 mPa·s
298.15 K, 101.33 kPa, x1 = 0.8
  viscosity: 0.907 ± 0.025 mPa·s
298.15 K, 101.33 kPa, x1 = 0.805
  viscosity: 0.9112 ± 0.024 mPa·s
298.15 K, 101.33 kPa, x1 = 0.8116
  viscosity: 0.9812 ± 0.051 mPa·s
298.15 K, 101.33 kPa, x1 = 0.9013
  viscosity: 0.9506 ± 0.025 mPa·s
303.15 K, 101.33 kPa, x1 = 0.1025
  viscosity: 0.6033 ± 0.016 mPa·s
303.15 K, 101.33 kPa, x1 = 0.2004
  viscosity: 0.6433 ± 0.017 mPa·s
303.15 K, 101.33 kPa, x1 = 0.3003
  viscosity: 0.6712 ± 0.018 mPa·s
303.15 K, 101.33 kPa, x1 = 0.402
  viscosity: 0.7045 ± 0.019 mPa·s
303.15 K, 101.33 kPa, x1 = 0.4985
  viscosity: 0.738 ± 0.019 mPa·s
303.15 K, 101.33 kPa, x1 = 0.5991
  viscosity: 0.7765 ± 0.021 mPa·s
303.15 K, 101.33 kPa, x1 = 0.699
  viscosity: 0.8121 ± 0.022 mPa·s
303.15 K, 101.33 kPa, x1 = 0.805
  viscosity: 0.8545 ± 0.023 mPa·s
303.15 K, 101.33 kPa, x1 = 0.9013
  viscosity: 0.8883 ± 0.024 mPa·s
308.15 K, 101.33 kPa, x1 = 0.1
  viscosity: 0.556 ± 0.015 mPa·s
308.15 K, 101.33 kPa, x1 = 0.1025
  viscosity: 0.5736 ± 0.015 mPa·s
308.15 K, 101.33 kPa, x1 = 0.2
  viscosity: 0.587 ± 0.016 mPa·s
308.15 K, 101.33 kPa, x1 = 0.2004
  viscosity: 0.6196 ± 0.016 mPa·s
308.15 K, 101.33 kPa, x1 = 0.3003
  viscosity: 0.6447 ± 0.017 mPa·s
308.15 K, 101.33 kPa, x1 = 0.4
  viscosity: 0.649 ± 0.018 mPa·s
308.15 K, 101.33 kPa, x1 = 0.402
  viscosity: 0.675 ± 0.018 mPa·s
308.15 K, 101.33 kPa, x1 = 0.4985
  viscosity: 0.7086 ± 0.019 mPa·s
308.15 K, 101.33 kPa, x1 = 0.5
  viscosity: 0.68 ± 0.018 mPa·s
308.15 K, 101.33 kPa, x1 = 0.5991
  viscosity: 0.7422 ± 0.02 mPa·s
308.15 K, 101.33 kPa, x1 = 0.6
  viscosity: 0.715 ± 0.019 mPa·s
308.15 K, 101.33 kPa, x1 = 0.699
  viscosity: 0.7763 ± 0.021 mPa·s
308.15 K, 101.33 kPa, x1 = 0.8
  viscosity: 0.785 ± 0.021 mPa·s
308.15 K, 101.33 kPa, x1 = 0.805
  viscosity: 0.8167 ± 0.022 mPa·s
308.15 K, 101.33 kPa, x1 = 0.9013
  viscosity: 0.8509 ± 0.023 mPa·s
313.15 K, 101.33 kPa, x1 = 0.1025
  viscosity: 0.5191 ± 0.014 mPa·s
313.15 K, 101.33 kPa, x1 = 0.2004
  viscosity: 0.5555 ± 0.015 mPa·s
313.15 K, 101.33 kPa, x1 = 0.3003
  viscosity: 0.5884 ± 0.016 mPa·s
313.15 K, 101.33 kPa, x1 = 0.402
  viscosity: 0.6099 ± 0.016 mPa·s
313.15 K, 101.33 kPa, x1 = 0.4985
  viscosity: 0.6337 ± 0.017 mPa·s
313.15 K, 101.33 kPa, x1 = 0.5991
  viscosity: 0.669 ± 0.018 mPa·s
313.15 K, 101.33 kPa, x1 = 0.699
  viscosity: 0.7007 ± 0.018 mPa·s
313.15 K, 101.33 kPa, x1 = 0.805
  viscosity: 0.7318 ± 0.019 mPa·s
313.15 K, 101.33 kPa, x1 = 0.9013
  viscosity: 0.7626 ± 0.02 mPa·s
318.15 K, 101.33 kPa, x1 = 0.1
  viscosity: 0.489 ± 0.013 mPa·s
318.15 K, 101.33 kPa, x1 = 0.2
  viscosity: 0.517 ± 0.014 mPa·s
318.15 K, 101.33 kPa, x1 = 0.4
  viscosity: 0.57 ± 0.015 mPa·s
318.15 K, 101.33 kPa, x1 = 0.5
  viscosity: 0.597 ± 0.016 mPa·s
318.15 K, 101.33 kPa, x1 = 0.6
  viscosity: 0.626 ± 0.017 mPa·s
318.15 K, 101.33 kPa, x1 = 0.8
  viscosity: 0.684 ± 0.019 mPa·s
323.15 K, 101.33 kPa, x1 = 0.1
  viscosity: 0.46 ± 0.012 mPa·s
323.15 K, 101.33 kPa, x1 = 0.2
  viscosity: 0.485 ± 0.0097 mPa·s and 0.485 ± 0.013 mPa·s
323.15 K, 101.33 kPa, x1 = 0.4
  viscosity: 0.533 ± 0.014 mPa·s
323.15 K, 101.33 kPa, x1 = 0.5
  viscosity: 0.559 ± 0.011 mPa·s and 0.559 ± 0.015 mPa·s
323.15 K, 101.33 kPa, x1 = 0.6
  viscosity: 0.585 ± 0.016 mPa·s
323.15 K, 101.33 kPa, x1 = 0.8
  viscosity: 0.64 ± 0.017 mPa·s

— the CheMixHub viscosity set
